Laboratory results as given in patent publication US12594335B2, “Platinum-based drug-/photosensitizer-loaded protein nanoparticle, and preparation method therefor and application thereof” (SOOCHOW UNIVERSITY, priority 2020, dated 2026).

Assays:
[1] = Serum biochemical indexes of liver and kidney functions; format: in vivo, Balb/c mice; conditions: 5 mg/kg Pt i.v. every other day, 3 times; serum on day 7, 14, 21, 28
Source text: Inspection of biochemical indexes after action of nanoparticles: In order to determine the toxicity of drugs during metabolism in vivo, biochemical indexes of liver and kidney functions were investigated. […]

[2] = In-vitro chemical stability (UV absorbance of Ce6 within 72 h); format: physicochemical; conditions: water, phosphate buffer pH 5.5, pH 7.4, culture medium with 10% fetal bovine serum
Experimental: In-vitro stability of nanoparticles: (1) Chemical stability of nanoparticles: taking 0.1 mL of a nanoparticle solution with the concentration of Ce6 at 20 μmol/L and 0.1 mL of a free Ce6 solution with a concentration of 20 μmol/L, respectively, and adding them respectively to 2.9 mL of pure water, a phosphate buffer with pH 5.5, a phosphate buffer with pH 7.4, and a RPMI 1640 culture medium containing 10% fetal bovine serum; and storing at room temperature and away from light, with 3 copies for each environment. A UV-vis spectrophotometer was used to measure the absorbance change of Ce6 within 72 h.

[3] = Photostability under 660 nm laser irradiation; format: physicochemical
Experimental: (2) Photostability of nanoparticles: taking 0.1 mL of a nanoparticle solution with the concentration of Ce6 at 20 μmol/L and 0.1 mL of a free Ce6 solution with a concentration of 20 μmol/L, respectively, and adding them respectively to 2.9 mL of pure water, a phosphate buffer with pH 5.5, and a phosphate buffer with pH 7.4; and using a 660 nm laser with the power of 0.15 W/cm^2 to irradiate the solutions once every 30 s, and immediately measuring the ultraviolet absorption value with a UV-vis spectrophotometer until full 5 min of irradiation.

Compound	kidney indexes Urea and Crea [1]	liver indexes (ALT, AST, ALP) [1]	decrease of UV absorption with time [2]	photostability ([3]; 0.15 W/cm^2, up to 5 min, deionized water, pH 5.5 and pH 7.4 buffers)	time to completed photobleaching ([3]; acidic environment, 0.15 W/cm^2) [s]
N.N.[Cl][Pt][Cl] [free CDDP, cis-dichlorodiammine platinum (II)]	increased rapidly	changed greatly			
chlorin e6 [free Ce6]			20%-40%	photobleached quickly	≤ 120
